Laboratory results from a melting point compilation (Tetko et al.).

| SMILES | melting point |
| --- | --- |
| CC(C)C(C)(C)C | -25 °C |
| O=C(O)C(O)C(Cl)(Cl)Cl (stereo unspecified) | 125 °C |
| COC(=O)C1CCCc2c1[nH]c1cc(OC)ccc21 (stereo unspecified) | 92 °C |
| Cc1cc(C)oc(=O)c1 | 51.5 °C |
| CN(C)CCC=C1c2ccccc2CSc2ccccc21 | 56 °C |
| O=C(Nc1cccc(N=[N+]([O-])c2cccc(NC(=O)c3ccccc3)c2)c1)c1ccccc1 | 247 °C |
| Cc1cccc(C)c1C(=O)O | 116 °C |
| N[C@H](CO)[C@H](O)c1ccccc1 | 110 to 114 °C |
| NNc1ccc([N+](=O)[O-])cn1 | 206 °C |
| O=C(OCc1ccccc1Br)ON1C(=O)CCC1=O | 107 °C |
| O=C(C=Cc1ccc(-c2cccc([N+](=O)[O-])c2)o1)c1ccccc1 | 146 to 147 °C |
| CC1(C)CC(NCCCCCCNC2CC(C)(C)NC(C)(C)C2)CC(C)(C)N1 | 64 °C |
| O=C1C=CC(=O)[C@@H]2CC3=C(CC4=C(C3)C[C@H]3C(=O)C=CC(=O)[C@H]3C4)C[C@H]12 | 335 to 340 °C |
| O=C(O)C1(c2ccc(Cl)cc2)CCCC1 | 160 to 164 °C |
| CCOC(=O)c1cc(C)[nH]c(=S)c1C#N | 214 °C |
| CC(C)(C)OC(=O)n1cc(C(=O)O)c2cc(Br)ccc21 | 206 to 209 °C |
| N#Cc1cccc(C(=O)Cc2cccc(Cl)c2)c1 | 87.5 to 90.8 °C |
| Nc1c(O)cccc1[N+](=O)[O-] | 216 °C |
| OCC(F)(F)C(F)(F)C(F)(F)C(F)(F)C(F)(F)C(F)(F)C(F)(F)F | 43 to 47 °C |
| CN(C)CCc1c[nH]c2ccc(Cn3cncn3)cc12 | 179 °C |
| Cc1coc2ccccc2c1=O | 68 °C |
| COC(=O)c1scc(C)c1Cl | 76 to 78 °C |

| SMILES | melting point |
| --- | --- |
| COc1cc(Cc2nccc3cc(OC)c(O)cc23)ccc1O | 209 °C |
| CC(=O)c1c(Cl)cccc1Cl | 43 °C |
| COP(=O)(OC)OC(Br)C(Cl)(Cl)Br (stereo unspecified) | 27 °C |
| CCOC(=O)c1cn2ccccc2n1 | 80 to 83 °C |
| NC(=S)c1cc(Cl)nc(Cl)c1 | 145 to 150 °C |
| CC(C)(C)OC(=O)N[C@@H](Cc1c[nH]c2ccccc12)C(=O)O | 134 to 139 °C |
| O=C(NC(=C(NC(=O)c1ccccc1)c1ccccc1)c1ccccc1)c1ccccc1 | 100 °C |
| O=C(Cc1ccc(-c2ccccc2)cc1)Nc1ccccn1 | 122 °C |
| C1CCN(SSN2CCCCC2)CC1 | 64.2 °C |
| CSc1sc(C(=O)O)c(-c2ccc(Cl)cc2)c1C#N | 241 to 243 °C |
| CCOP(=O)(OCC)ON1C(=O)c2cccc3cccc(c23)C1=O | 177 °C |
| CC(=O)N1CCc2cc(Br)ccc21 | 124 to 127 °C |
| O=C(OCCOC(=O)C(Cl)(Cl)Cl)C(Cl)(Cl)Cl | 40 °C |
| O=S(=O)(Cl)c1cccc2nonc12 | 77 to 78 °C |
| CC(=O)/N=c1\sc(C(C)=O)nn1-c1ccc(F)cc1 | 157 °C |
| COc1cc(C=O)ccc1OCc1c(F)cccc1Cl | 124 to 126 °C |
| CCOC(=O)c1cnc(SC)nc1Cl | 62 °C |
| C1=CC2(CC2)C2C1C1C=CC2C12CC2 (stereo unspecified) | 45 °C |
| CCC(=O)c1ccc(OCc2ccccc2)cc1 | 100 °C |
| NC(=O)/C(=N\Nc1cc(Cl)ccc1Cl)c1nc2ccccc2s1 | 270 °C |
| N#CC1(OC(=O)c2ccccc2)Cc2ccccc21 (stereo unspecified) | 112 °C |
| NC(=O)c1cccc(C(F)(F)F)c1F | 96 °C |

| SMILES | melting point |
| --- | --- |
| Clc1ccc2ccccc2c1Cl | 36 °C |
| CC(C(=O)O)N1C(=O)c2ccccc2C1=O (stereo unspecified) | 163 °C |
| NC(CC1CCCCC1)C(=O)O (stereo unspecified) | 322 to 328 °C |
| O=C(O)C(Cl)CCl (stereo unspecified) | 50 °C |
| CCOc1cc(Oc2ccc(C(F)(F)F)cc2Cl)ccc1[N+](=O)[O-] | 85.3 °C |
| OC1Cc2cccc3cccc1c23 (stereo unspecified) | 148 °C |
| Ic1cccc(OCc2ccccc2)c1 | 51 °C |
| CCOC(=O)c1ccc(OC)cn1 | 39 °C |
| Cn1cnc2ccccc21 | 61 °C |
| O=C(O)CC1CCCC1 | 12 °C |
| S=C(Oc1ccccc1)Oc1ccccc1 | 106 °C |
| O=[N+]([O-])c1ccc(Oc2ccc(Cl)cc2)nc1 | 93 to 96 °C |
| Clc1ncnc2sc3c(c12)CCC3 | 108 to 110 °C |
| CCC(CC)(CO)CO | 61.5 °C |
| O=CNC1CCCCC1 | 39.5 °C |
| CC(C)c1cccc2ccccc12 | -16 °C |
| Cc1ccc(C)n1CC1CCNCC1 | 50 °C |
| C/C(CCc1ccc2c(c1)NC(C)CC2)=N\NC(N)=O (stereo unspecified) | 128 °C |
| COc1c(OC)c(OC(C)=O)c2c(Cl)cccc2c1OC(C)=O | 134 °C |
| O=[N+]([O-])c1ccc(NN=Cc2cccc3c(Br)ccc([N+](=O)[O-])c23)cc1 | 205 °C |
| CCOC(=O)C(C)(C)N1CCN(c2ccc(Cl)cc2)CC1 | 56 °C |
| O=C1C(=Cc2ccccc2)SC(=S)N1CNc1cccc([N+](=O)[O-])c1 | 190 °C |
